Test results published in US11612615B2, “Combined administration of cysteine-aspartic protease inhibitors with P2Y12 receptor antagonists protects the heart against myocardial infarction” (The University of South Alabama, priority 2017, dated 2023).
“Also recorded” adds a separate entry of the source.

What was measured:
coronary I/R = conditions: rat models of coronary I/R; cited from earlier work
[1] = system: I/R injury of the heart (LAD occlusion); assay: In situ open-chest LAD occlusion, 60-min ischemia/120-min reperfusion, infarct size by TTC staining; format: in vivo, Sprague-Dawley rats; conditions: for infarct size / cardioprotection (in words): open chest rat hearts, 60 min ischemia/120-min reperfusion, treatment just prior to reperfusion; for infarction, % of the risk zone: rat, 60-min LAD ligation/120-min reperfusion, VX-765 32 mg/kg iv 5 min, cangrelor 60 μg/kg iv bolus + 6 μg/kg/min, ticagrelor 30 mg/kg ip 10 min prior to reperfusion, mean ± standard error
[2] = system: buffer perfused mouse hearts (global ischemia); assay: Isolated buffer-perfused mouse heart, 35 or 50 min global ischemia/2 h reperfusion, infarct size; design: species or system C57BL/6 mice; conditions: for infarct size reduction (in words): mouse heart, 30 uM VX-765 10 min prior to ischemia and throughout reperfusion, 9 uM emricasan first 20 min of reperfusion, FIG. 9
Procedure: Hearts were removed from pentobarbital-anesthetized C57BL/6 mice and quickly (less than 3 min) mounted on a Langendorff perfusion apparatus where they were retroperfused with Krebs buffer at 100 mmHg pressure and at 37 Deg C. After 20 min perfusion to equilibrate the perfusion was stopped to create global ischemia. After and index ischemia of either 35 or 50 min the hearts were reperfused for 2 h and infarct size was measured by triphenyltetrazolium staining. Treatments included 30 uM VX-765 for 10 min prior to ischemia and throughout reperfusion, 9 uM emricasan for the first 20 min of reperfusion only, Ischemic preconditioning (IPC) with three cycles of 5 min ischemic Plus 5 min reperfusion prior to the index ischemia, or IPC+emricasan.

IL-1β = assay: In situ open-chest LAD occlusion, 60-min ischemia/30-min reperfusion: serum IL-1β ELISA; format: in vivo, rat; conditions: VX-765 32 mg/kg 5-min prior to reperfusion, FIG. 4A
Procedure: (§1) Applicants' standard in situ open chest LAD occlusion protocol was modified to examine effects of a 30-min reperfusion period on heart tissue enzymes and metabolic function. Two groups were tested with infusions occurring 5-min prior to reperfusion: 1) vehicle control DMSO (the VX-765 solvent) was administered as (1.0 mL of 100% DMSO)×(kg body weight) with the final infusion volume adjusted to 0.9 mL with normal saline; and 2) VX-765, 32 mg/kg. Immediately prior to experiment terminus, blood was collected and serum assayed by ELISA for levels of circulating IL-113. At experiment terminus, the heart was removed from the chest and mounted on a Langendorff apparatus where it was perfused with normal saline. The coronary branch was re-occluded and 15 μm fluorescent microspheres were infused to identify the ischemic zone followed by acquisition of biopsies from both ischemic and non-ischemic zones. […] Normalized amounts of protein were resolved by SDS-PAGE (4-20% Tris-Glycine gradient gels) and analyzed by immunoblotting using antibodies against Caspase-1, glyceraldehyde-3-phosphate dehydrogenase (GAPDH), Aldolase-A, and Hexokinase II. […] For all blotting experiments, protein transfer membranes were first stained with Coomassie Brilliant Blue (CBB) and analyzed on the LiCor Odyssey for total protein levels. […]

[3] = system: Caspase-1, GAPDH, Aldolase-A, Hexokinase II; assay: 60-min ischemia/30-min reperfusion: immunoblotting of heart tissue biopsies; format: in vivo, rat
Procedure: (§2) Applicants' standard in situ open chest LAD occlusion protocol was modified to examine effects of a 30-min reperfusion period on heart tissue enzymes and metabolic function. Two groups were tested with infusions occurring 5-min prior to reperfusion: 1) vehicle control DMSO (the VX-765 solvent) was administered as (1.0 mL of 100% DMSO)×(kg body weight) with the final infusion volume adjusted to 0.9 mL with normal saline; and 2) VX-765, 32 mg/kg. Immediately prior to experiment terminus, blood was collected and serum assayed by ELISA for levels of circulating IL-113. At experiment terminus, the heart was removed from the chest and mounted on a Langendorff apparatus where it was perfused with normal saline. The coronary branch was re-occluded and 15 μm fluorescent microspheres were infused to identify the ischemic zone followed by acquisition of biopsies from both ischemic and non-ischemic zones. Viable samples were immediately prepared for high resolution respirometry using the Oroboros oxygraph O2K as previously described. In parallel, a portion of the biopsied tissue was immediately ejected into liquid nitrogen and stored at −80° C. Subsequently, tissues were homogenized and solubilized for analyses of total protein. Normalized amounts of protein were resolved by SDS-PAGE (4-20% Tris-Glycine gradient gels) and analyzed by immunoblotting using antibodies against Caspase-1, glyceraldehyde-3-phosphate dehydrogenase (GAPDH), Aldolase-A, and Hexokinase II. In a separate set of blots, samples were assayed for protein oxidation (carbonylation) using the oxidized protein western blot kit (Abcam, oxyblotting). For all blotting experiments, protein transfer membranes were first stained with Coomassie Brilliant Blue (CBB) and analyzed on the LiCor Odyssey for total protein levels. These CBB data were used to normalize all immuno- and oxyblotting data.

[4] = system: mitochondrial complexes (Complex-I, Complex-III); assay: 60-min ischemia/30-min reperfusion: high resolution respirometry of heart tissue biopsies; format: in vivo, rat
Procedure: as §2
Tissue mitochondrial function is reported as the amount of oxygen consumed (i.e., JO2). In this protocol, heart tissues are harvested 30-min after reperfusion to ensure tissue retention of mitochondrial function and permeabilized with detergents to allow direct assessment of each mitochondrial complex via addition of specific substrates (i.e., electron donors) and poisons. Using this early 30-min reperfusion time point allows differentiation of dysfunctional mitochondrial complex activities from the absolute loss of function occurring at later time points after cell death had ensued. As a further level of experimental control, mitochondrial complex activities were assayed in non-ischemic and ischemic zone tissues isolated from animals treated with vehicle control (DMSO) or the Caspase-1 inhibitor VX-765.

[5] = system: I/R injury of the heart (LAD occlusion); conditions: VX-765 16 mg/kg body weight 30-min prior to onset of ischemia; cited from earlier work
[6] = system: blood-free isolated rat hearts (global I/R injury); assay: Ex vivo isolated buffer-perfused heart, 40-min global ischemia/120-min reperfusion
Procedure: To examine effects of VX-765 on blood-free isolated hearts, rats were anesthetized as described above. Animals were intubated through tracheotomy and positive pressure ventilation initiated with 100% oxygen. A thoracotomy was performed and the heart was quickly excised from the chest cavity for mounting on a Langendorff apparatus (within one minute). The coronary arteries were retroperfused with Krebs buffer through the aortic root and a latex balloon was placed in the lumen of the left ventricle allowing volume adjustment to 100 mmHg peak ventricular pressure. After a 20-min period of equilibration, perfusion was stopped for 40-min to induce global ischemia. The heart was maintained in a water-jacketed chamber filled with buffer during the occlusion period at a constant temperature of 37° C. Perfusion was re-initiated and continued for 120-min. The balloon was deflated at the beginning of reperfusion so subendocardial perfusion would not be impaired by any elevation in luminal diastolic pressure. The balloon was reinflated to zero diastolic pressure (unstressed ventricular volume) so final developed pressure could be measured. The coronary effluent was sampled immediately prior to ischemia, immediately at reperfusion, and serially thereafter every 20-min. The heart was perfused with buffer containing either vehicle (DMSO) or VX-765 for 10-min prior to ischemia and again during reperfusion. Two groups were tested: 1) DMSO vehicle control perfused at 0.5 mL/L of buffer and 2) VX-765, 30 μM final concentration. After 120 minutes reperfusion, developed pressure was measured as the difference between end-systolic and end-diastolic left ventricular pressure with a transducer attached to the intraventricular balloon. Infarct size was measured as above. Collected effluent was analyzed for lactate dehydrogenase (LDH) as previously described. An independent aliquot was concentrated 20-fold using a 3,000 MW cut-off ultrafilter (Millipore) and assayed for IL-113 by ELISA (ThermoFisher Scientific).

protein carbonylation = assay: 60-min ischemia/30-min reperfusion: protein oxidation (carbonylation) oxyblotting of heart tissue; format: in vivo, rat; conditions: ischemic and non-ischemic tissues, FIG. 5D
Procedure: as §1

Compound: zVAD
- infarct size (coronary I/R): reduced infarct size

Compound: CSCCNc1nc(SCCC(F)(F)F)nc2c1ncn2[C@@H]1O[C@H](COP(=O)(O)OP(=O)(O)C(Cl)(Cl)P(=O)(O)O)[C@@H](O)[C@H]1O [cangrelor]
- infarct size / cardioprotection (in words) [1]: reduced infarct size
- infarction, % of the risk zone [1]: 43.8±2.4%

Compound: C[C@H](NC(=O)C(=O)Nc1ccccc1C(C)(C)C)C(=O)N[C@@H](CC(=O)O)C(=O)COc1c(F)c(F)cc(F)c1F [emricasan]
- protection in combination with ischemic preconditioning (IPC) ([2]; index ischemia 50 min, IPC three cycles 5 min ischemia/5 min reperfusion, 9 uM emricasan): additive protection
- infarct size reduction (in words) [2]: similarly reduced infarct size; also recorded: equipotent for infarct size reduction
- infarct size reduction (in words) ([2]; listed as Emricasan): as protective as VX-765 pretreatment

Compound: CCCSc1nc(N[C@@H]2C[C@H]2c2ccc(F)c(F)c2)c2nnn([C@@H]3C[C@H](OCCO)[C@@H](O)[C@H]3O)c2n1 [ticagrelor]
- protection when combined with ischemic postconditioning (IPOC) ([1]; IPOC three cycles of 30 s reperfusion/30 s occlusion at end of 60 min ischemia, FIG. 10): no more protective than either alone
- infarct size / cardioprotection (in words) [1]: reduced infarct size; also recorded: no more cardioprotective than cangrelor
- infarction, % of the risk zone [1]: 42.8±3.3%

Compound: CCO[C@@H]1OC(=O)C[C@@H]1NC(=O)[C@@H]1CCCN1C(=O)[C@@H](NC(=O)c1ccc(N)c(Cl)c1)C(C)(C)C [VX-765, (S)-1-((S)-2-{[1-(4-amino-3-chloro-phenyl)-methanoyl]-amino}-3,3-dimethyl-butanoyl)-pyrrolidine-2-carboxylic acid ((2R,3S)-2-ethoxy-5-oxo-tetrahydro-furan-3-yl)-amide]
- dose dependence of infarct size reduction (pilot studies) ([1]; VX-765 iv prior to ischemia, data not shown): independent of the dose above 16 mg/kg
- infarct size / cardioprotection (in words) [1]: reduced infarct size
- infarction, % of the risk zone [1]: 38.6±3.9%
- IL-1β level in blood, vehicle (DMSO) compared to VX-765 (IL-1β): significantly higher levels of IL-113 in blood when compared to animals treated with VX-765
- levels of active Caspase-1 in tissue ([3]; ischemic tissue, VX-765 32 mg/kg, FIG. 4B): did not prevent Caspase-1 activation
- GAPDH degradation ([3]; ischemic zone, FIG. 4C): prevented degradation of GAPDH in the ischemic zone
- aldolase-A degradation ([3]; ischemic zone, FIG. 4D): partially prevented degradation of aldolase-A
- hexokinase II degradation (negative control) ([3]; ischemic zone, FIG. 4E): no effect in hexokinase II
- Complex-III activity ([4]; compared to vehicle, FIG. 5C): no significant differences
- JO2 in different states of mitochondrial respiration ([4]; different substrates, FIG. 7): none of the heart tissues from any group displayed JO2 differences
- Complex-I activity ([4]; non-ischemic and ischemic tissues, compared to vehicle, FIG. 5B): significantly decreased Complex-I activity
- respiratory ratio (mitochondrial fitness) ([4]; tissues reperfused for 30-min, FIG. 5A): not different among all groups
- infarct size reduction (in words) [2]: similarly reduced infarct size; also recorded: equipotent for infarct size reduction
- cardioprotection, previously reported [5]: extremely cardioprotective
- LDH release into coronary effluent ([6]; VX-765 30 μM, FIG. 3C): all but abolished
- protection against global I/R injury (in words) ([6]; blood free isolated buffer-perfused heart, FIG. 3): protects against global I/R injury
- left ventricular developed pressure ([6]; end of 120-min reperfusion, VX-765 30 μM): 20.5±4.2 mmHg
- average infarction ([6]; isolated rat heart, VX-765 30 μM in perfusate prior to ischemia and during reperfusion): 45.8±1.5%
- protein carbonylation (protein carbonylation): no differences in protein carbonylation
